Results from patent publication US6727246B2, “1-(aminoalkyl)-3-sulfonylindole-and-indazole derivatives as 5-hydroxytryptamine-6 ligands” (Wyeth, priority 2002, dated 2004).
Where two headings read alike, the source gives them in different places.

Legend:
[1] = biological target: T1, human cloned 5-HT6 receptors (Homo sapiens, UniProt P50406); experiment: 5-HT6 binding affinity, [3H]-LSD displacement on membranes of Hela cells expressing the cloned receptor; details: for inhibition at 1 µM: read-out: % Inhibition at 1 μM
T1 construct: expressed in transfected cells; host or cells: Hela cells (membrane preparation)
T1 sequence (P50406 whole entry): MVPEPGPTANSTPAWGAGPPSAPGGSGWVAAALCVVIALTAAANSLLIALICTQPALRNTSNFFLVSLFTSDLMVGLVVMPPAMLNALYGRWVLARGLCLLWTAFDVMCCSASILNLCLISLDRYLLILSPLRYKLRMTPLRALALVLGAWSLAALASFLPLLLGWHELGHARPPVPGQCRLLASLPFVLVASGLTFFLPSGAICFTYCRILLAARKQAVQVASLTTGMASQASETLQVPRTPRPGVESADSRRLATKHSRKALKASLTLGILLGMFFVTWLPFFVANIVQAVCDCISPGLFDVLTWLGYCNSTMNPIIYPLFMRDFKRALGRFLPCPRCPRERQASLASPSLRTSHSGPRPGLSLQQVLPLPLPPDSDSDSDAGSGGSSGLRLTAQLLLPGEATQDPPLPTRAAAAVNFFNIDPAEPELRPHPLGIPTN

[2] = [3H]-LSD 3.0 nM, Hela cell membranes, 120 min at room temperature, read-out: 5-HT6 Binding Ki

Row | SMILES | Ki [1, 2] | melting point | inhibition at 1 µM ([1]; 1 μM test compound, displacement of [3H]-LSD) | Ki [1] | inhibition at 1 µM [1]
1 | CN(C)CCn1cc(S(=O)(=O)c2ccccc2)c2ccccc21 [Example 3] | – | – | – | 20 nM | –
2 | CN(C)CCn1cc(S(=O)(=O)c2ccccc2)c2c(F)cccc21 [Example 9, N,N-dimethyl-N-{2-[4-fluoro-3-(phenylsulfonyl)-1H-indol-1-yl]ethyl}amine] | – | 201 to 203 °C | – | 98 nM | –
3 | CN(C)CCn1cc(S(=O)(=O)c2ccccc2)c2c(Cl)cccc21 [Example 11, N,N-dimethyl-N-{2-[4-chloro-3-(phenylsulfonyl)-1H-indol-1-yl]-ethyl}amine] | 134 nM | 209 to 211 °C | – | – | –
4 | Cc1cccc2c1c(S(=O)(=O)c1ccccc1)cn2CCN(C)C [Example 12, N,N-dimethyl-N-{2-[4-methyl-3-(phenylsulfonyl)-1H-indol-1-yl]ethyl}amine] | 183 nM | 220 to 221 °C | – | – | –
5 | CCc1cccc2c(S(=O)(=O)c3ccccc3)cn(CCN(C)C)c12 [Example 13, N,N-dimethyl-N-{2-[7-ethyl-3-(phenylsulfonyl)-1H-indol-1-yl]ethyl}amine] | – | 213 to 216 °C | – | 65 nM | –
6 | CN(C)CCn1cc(S(=O)(=O)c2ccccc2)c2cccc(C#N)c21 [Example 14, 1-[2-(dimethylamino)ethyl]-3-(phenylsulfonyl)-1H-indole-7-carbonitrile] | 755 nM | 134 to 136 °C | – | – | 35%
7 | COc1ccc2c(c1)c(S(=O)(=O)c1ccccc1)cn2CCN(C)C [Example 20] | – | 214 to 216 °C | – | 23 nM | 88%
8 | COc1cccc2c(S(=O)(=O)c3ccccc3)cn(CCN(C)C)c12 [Example 23] | – | 236 to 238 °C | – | 25 nM | –
9 | Cc1c(S(=O)(=O)c2ccccc2)c2ccccc2n1CCN(C)C [Example 24, N,N-dimethyl-N-{2-[2-methyl-3-(phenylsulfonyl)-1H-indol-1-yl]ethyl}amine] | – | 258 to 260 °C | – | 18 nM | –
10 | CN(C)CCn1cc(S(=O)(=O)c2ccccc2)c2ccc(-c3ccccc3)cc21 [Example 27] | 23 nM | – | – | – | –
11 | CN(C)CCn1nc(S(=O)(=O)c2ccccc2)c2ccccc21 [Example 35] | 74 nM | – | – | – | –
12 | CN(C)CCn1nc(S(=O)(=O)c2cccc(F)c2)c2ccccc21 [Example 37] | 55 nM | 192 to 194 °C | – | – | –
13 | COc1ccc2c(c1)c(S(=O)(=O)c1ccccc1)cn2CCNCc1ccccc1 [Example 39] | 59 nM | – | – | – | –
14 | CN(C)CCn1cc(S(=O)(=O)c2ccccc2)c2cc(F)ccc21 [Example 47] | – | 103 to 104 °C | – | 44 nM | –
15 | COc1ccc2c(S(=O)(=O)c3ccccc3)cn(CCN(C)C)c2c1 [Example 48] | – | 121 to 122 °C | – | 23 nM | –
16 | CN(C)CCn1cc(S(=O)(=O)c2ccccc2)c2ccc(F)cc21 [Example 50] | – | 100 to 102 °C | – | 46 nM | –
17 | CN(C)CCn1cc(S(=O)(=O)c2ccccc2)c2ccc(Cl)cc21 [Example 51] | – | 104 to 106 °C | – | 42 nM | –
18 | Cc1ccc(S(=O)(=O)c2cn(CCN(C)C)c3ccccc23)cc1 [Example 52] | – | > 250 °C | – | 57 nM | –
19 | COc1cccc2c1c(S(=O)(=O)c1ccccc1)cn2CCN(C)C [Example 53] | 152 nM | 238 to 240 °C | – | – | –

The next lines start with results.

Row | Ki [1, 2] | melting point | inhibition at 1 µM ([1]; 1 μM test compound, displacement of [3H]-LSD) | SMILES | Ki [1] | inhibition at 1 µM [1]
20 | 92 nM | – | – | NCCCn1cc(S(=O)(=O)c2ccccc2)c2ccccc21 [Example 5, 3-[3-(phenylsulfonyl)-1H-indol-1-yl]propan-1-amine] | – | –
21 | 160 nM | 184 to 187 °C | – | CN(C)CCCCn1cc(S(=O)(=O)c2ccccc2)c2ccccc21 [Example 7] | – | –
22 | 45 nM | 280 °C (dec.) | – | CN(C)CCn1cc(S(=O)(=O)c2ccccc2)c2cc(C#N)ccc21 [Example 8, 1-[2-(dimethylamino)ethyl]-3-(phenylsulfonyl)-1H-indole-5-carbonitrile] | – | –
23 | 98 nM | 240 to 242 °C | – | CN(C)CCn1cc(S(=O)(=O)c2ccccc2)c2cccc(Cl)c21 [Example 10, N,N-dimethyl-N-{2-[7-chloro-3-(phenylsulfonyl)-1H-indol-1-yl]-ethyl}amine] | – | –
24 | 169 nM | 207 to 209 °C | – | CN(C)CCCn1cc(S(=O)(=O)c2ccccc2)c2ccccc21 [Example 15, N,N-dimethyl-3-[3-(phenylsulfonyl)-1H-indol-1-yl]propan-1-amine] | – | –
25 | – | 198 to 201 °C | 86% | COc1ccc2c(c1)c(S(=O)(=O)c1ccccc1)cn2CCN [Example 21, 2-[5-methoxy-3-(phenylsulfonyl)-1H-indol-1-yl]ethylamine] | – | –
26 | 13 nM | 210 to 211 °C | – | CN(C)CCn1cc(S(=O)(=O)c2cccc(F)c2)c2ccccc21 [Example 25] | – | –
27 | 4 nM | 239 to 241 °C | – | CN(C)CCn1cc(S(=O)(=O)c2cccc3ccccc23)c2ccccc21 [Example 26] | – | –
28 | 1010 nM | 219 to 220 °C | – | CN(C)CCn1cc(S(=O)(=O)Cc2ccccc2)c2ccccc21 [Example 31] | – | –
29 | 644 nM | 223 to 225 °C | – | O=S(=O)(Cc1ccccc1)c1cn(CCN2CCCCC2)c2ccccc12 [Example 32] | – | –
30 | 44 nM | 208 to 209 °C | – | NCCn1nc(S(=O)(=O)c2ccccc2)c2ccccc21 [Example 36, 2-[3-(phenylsulfonyl)-1H-indazol-1-yl]ethylamine] | – | –
31 | 25 nM | 220 to 221 °C | – | NCCn1cc(S(=O)(=O)c2ccccc2)c2ccccc21 [Example 40, 2-[3-(phenylsulfonyl)-1H-indol-1-yl]ethylamine] | – | –
32 | 141 nM | 200 to 206 °C | – | NCCn1cc(S(=O)(=O)c2ccccc2)c2ccc(Cl)cc21 [Example 44, 2-[6-chloro-3-(phenylsulfonyl)-1H-indol-1-yl]ethylamine] | – | –
33 | 25 nM | 178 to 183 °C | – | Cc1ccc(S(=O)(=O)c2cn(CCN)c3ccccc23)cc1 [Example 45] | – | –
34 | 573 nM | 158 to 160 °C | – | Cn1ccnc1S(=O)(=O)c1cn(CCN)c2ccccc12 [Example 46] | – | –
35 | 51 nM | 131 to 132 °C | – | Cc1ccc2c(S(=O)(=O)c3ccccc3)cn(CCN(C)C)c2c1 [Example 49] | – | –
36 | 16 nM | – | – | CN(C)CCn1cc(S(=O)(=O)c2ccccc2OC(F)(F)F)c2ccccc21 [Example 57] | – | –
37 | 6 nM | 138 to 140 °C | – | CN(C)CCn1cc(S(=O)(=O)c2c(Cl)nc3sccn23)c2ccccc21 [Example 58] | – | –
